Measured values from patent US20260224536A1, “ARYL HETEROCYCLIC KV1.3 INHIBITOR, PREPARATION METHOD THEREFOR, AND USE THEREOF” (SHANGHAI SHENSHI WISE TECHNOLOGY CO., LTD., priority 2022, published 2026).

Tests used:
Type in all cases: cell-based
[1] = molecular target: Kv1.3 potassium channel (Homo sapiens, UniProt P22001); test: Whole-cell patch-clamp assay for inhibitory activity against Kv1.3 (peak current); conditions: HEK293 cells stably expressing Kv1.3, patch-clamp
Summary of the method: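 Whole-cell currents evoked by a step from −80 mV holding to +40 mV for 500 ms at room temperature. Concentrations perfused cumulatively, low to high, each for 5 min or until steady state. Peak current normalised to each cell's compound-free control; IC50 from nonlinear fit, ≥3 cells per concentration.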

[2] = molecular target: T1, Kv1.1 potassium channel (Homo sapiens, UniProt Q09470); test: Whole-cell patch-clamp assay for inhibitory activity against Kv1.1 (steady state current); conditions: HEK293 cells stably expressing Kv1.1, patch-clamp, read-out: IC50 for inhibition of Kv1.1
T1 construct: expressed in transfected cells
Protocol: (§1) HEK293 cells stably expressing Kv1.X (Kv1.1, Kv1.2, Kv1.3, Kv1.4, Kv1.5) potassium channels were cultured in DMEM medium containing 10% fetal bovine serum and 800 μg/mL G418 (geneticin) at a culture temperature of 37° C. and a carbon dioxide concentration of 5%.
(§2) The extracellular fluid contained […], 3.5 mM KCl, 1 mM MgCl2·6H2O, 2 mM CaCl2·2H2O, 10 mM D-glucose, 10 mM HEPES, 1.25 mM NaH2PO4·2H2O, and the pH was adjusted to 7.4 with NaOH. The intracellular fluid contained 20 mM KCl, 115 mM K-Aspartic, 1 mM MgCl2·6H2O, 5 mM EGTA, 10 mM HEPES, 2 mM Na2-ATP, and the pH was adjusted to 7.2 with KOH.
(§3) The voltage stimulation protocol for recording whole-cell Kv1.X potassium currents via patch-clamp was as follows. After formation of a whole-cell seal, the cell membrane voltage was clamped at −80 mV, and then stepped to +40 mV for 500 ms. […] Then, a slow capacitance compensation was given, and the membrane capacitance and series resistance were recorded. […]
(§4) Once the whole-cell recorded Kv1.X current stabilized, drug administration was started. […] For each cell, the current detected in the compound-free extracellular liquid was used as its own control group. […]
(§5) and then the inhibition rate corresponding to each drug concentration was calculated
(§6) Subsequently, the mean, standard deviation (SD), and standard error (SE) were calculated for the inhibition rate corresponding to each concentration. […]

[3] = molecular target: T2, Kv1.2 potassium channel (Homo sapiens, UniProt P16389); test: Whole-cell patch-clamp assay for inhibitory activity against Kv1.2 (steady state current); conditions: HEK293 cells stably expressing Kv1.2, patch-clamp, read-out: IC50 for inhibition of Kv1.2
T2 construct: expressed in transfected cells
Protocol: as §1, §2, §3, §4, §5, §6

[4] = molecular target: Kv1.4 potassium channel (Homo sapiens, UniProt P22459); test: Whole-cell patch-clamp assay for inhibitory activity against Kv1.4 (peak current); conditions: HEK293 cells stably expressing Kv1.4, patch-clamp, read-out: IC50 for inhibition of Kv1.4
Protocol: as §1, §2, §3, §4, §5, §6

[5] = molecular target: Kv1.5 potassium channel (Homo sapiens, UniProt P22460); test: Whole-cell patch-clamp assay for inhibitory activity against Kv1.5 (steady state current); conditions: HEK293 cells stably expressing Kv1.5, patch-clamp, read-out: IC50 for inhibition of Kv1.5
Protocol: as §1, §2, §3, §4, §5, §6

[6] = molecular target: T3, hERG potassium channel (Homo sapiens, UniProt Q12809); test: Whole-cell voltage clamp assay for inhibitory activity against hERG; conditions: CHO cells stably expressing hERG, peak tail current at -50 mV, read-out: IC50 for inhibition of hERG
T3 construct: expressed in transfected cells
Protocol: CHO cells stably expressing hERG were cultured in 35 mm diameter cell culture dishes at 37° C. in a 5% CO2 incubator. The cells were passaged at a ratio of 1:5 every 48 h. The culture medium recipe was as follows: 90% F12 (Invitrogen), 10% fetal bovine serum (Gibco), 100 µg/mL G418 (Invitrogen), and 100 µg/mL Hygromycin B (Invitrogen). On the day of the test, the cell culture fluid was aspirated, and the cells were rinsed once with the extracellular fluid. […] The digestion solution was then aspirated, and the cells were resuspended with the extracellular fluid and transferred to an experimental dish for electrophysiological recording for later use. hERG potassium channel currents were recorded at room temperature by the whole-cell voltage clamp technique in the CHO cells stably expressing hERG potassium channels. Glass microelectrodes were formed by pulling a glass electrode blank (BF150-86-10, Sutter) using a puller. The tip resistance after perfusion with the electrode internal solution was about 2-5 MΩ. […] The clamping voltage and data recording were controlled and recorded by a computer with the pClamp software, with a sampling frequency of 10 kHz and a filtering frequency of 2 kHz. […] This voltage stimulation was applied every 5 s, and after the hERG potassium currents were determined to be stable (for 1 min), the drug administration process was started. […]

T3 sequence (Q12809 whole entry): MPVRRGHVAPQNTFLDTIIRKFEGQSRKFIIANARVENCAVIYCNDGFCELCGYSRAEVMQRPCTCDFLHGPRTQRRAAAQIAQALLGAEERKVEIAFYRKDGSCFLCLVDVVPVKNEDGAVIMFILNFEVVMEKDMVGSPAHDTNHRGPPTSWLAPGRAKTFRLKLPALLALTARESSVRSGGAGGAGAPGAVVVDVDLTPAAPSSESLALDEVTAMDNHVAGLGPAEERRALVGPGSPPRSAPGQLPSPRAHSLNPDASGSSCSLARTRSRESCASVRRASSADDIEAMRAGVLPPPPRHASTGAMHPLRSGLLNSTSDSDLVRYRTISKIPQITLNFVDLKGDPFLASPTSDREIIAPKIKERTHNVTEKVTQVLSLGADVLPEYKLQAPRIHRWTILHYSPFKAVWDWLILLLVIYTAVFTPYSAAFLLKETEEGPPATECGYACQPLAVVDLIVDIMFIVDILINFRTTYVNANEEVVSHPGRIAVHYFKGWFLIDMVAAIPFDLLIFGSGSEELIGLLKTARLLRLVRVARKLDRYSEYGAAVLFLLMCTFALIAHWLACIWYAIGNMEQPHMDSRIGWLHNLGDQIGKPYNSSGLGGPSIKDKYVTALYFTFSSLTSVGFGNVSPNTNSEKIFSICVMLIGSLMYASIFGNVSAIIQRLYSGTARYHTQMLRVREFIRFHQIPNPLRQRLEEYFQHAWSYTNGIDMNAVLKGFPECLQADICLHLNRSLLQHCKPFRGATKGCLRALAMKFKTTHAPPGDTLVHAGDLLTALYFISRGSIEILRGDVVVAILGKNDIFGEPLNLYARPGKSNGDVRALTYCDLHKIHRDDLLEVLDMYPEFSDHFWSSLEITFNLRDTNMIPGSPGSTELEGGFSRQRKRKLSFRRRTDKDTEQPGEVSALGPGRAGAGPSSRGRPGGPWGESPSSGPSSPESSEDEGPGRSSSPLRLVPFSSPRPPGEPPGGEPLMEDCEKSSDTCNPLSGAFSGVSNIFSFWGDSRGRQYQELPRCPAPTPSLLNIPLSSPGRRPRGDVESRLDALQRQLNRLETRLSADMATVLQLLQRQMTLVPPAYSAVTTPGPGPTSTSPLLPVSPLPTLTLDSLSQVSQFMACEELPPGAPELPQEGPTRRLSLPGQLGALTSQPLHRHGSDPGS
T1 sequence (Q09470 whole entry): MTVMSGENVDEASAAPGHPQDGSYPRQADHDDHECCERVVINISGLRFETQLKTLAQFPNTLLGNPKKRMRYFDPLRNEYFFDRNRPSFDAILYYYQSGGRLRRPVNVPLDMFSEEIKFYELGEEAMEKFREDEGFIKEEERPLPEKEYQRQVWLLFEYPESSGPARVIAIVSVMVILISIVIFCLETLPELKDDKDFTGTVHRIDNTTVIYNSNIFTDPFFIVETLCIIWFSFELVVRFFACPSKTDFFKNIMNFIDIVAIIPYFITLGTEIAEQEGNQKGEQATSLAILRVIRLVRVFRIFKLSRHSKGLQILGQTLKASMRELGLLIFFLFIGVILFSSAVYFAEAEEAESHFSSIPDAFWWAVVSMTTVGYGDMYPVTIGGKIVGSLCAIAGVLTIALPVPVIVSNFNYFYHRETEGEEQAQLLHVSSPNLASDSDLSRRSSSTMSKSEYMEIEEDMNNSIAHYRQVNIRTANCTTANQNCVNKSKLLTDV
Chain of Kv1.3 potassium channel (P22001 whole entry, the tested form may be a part): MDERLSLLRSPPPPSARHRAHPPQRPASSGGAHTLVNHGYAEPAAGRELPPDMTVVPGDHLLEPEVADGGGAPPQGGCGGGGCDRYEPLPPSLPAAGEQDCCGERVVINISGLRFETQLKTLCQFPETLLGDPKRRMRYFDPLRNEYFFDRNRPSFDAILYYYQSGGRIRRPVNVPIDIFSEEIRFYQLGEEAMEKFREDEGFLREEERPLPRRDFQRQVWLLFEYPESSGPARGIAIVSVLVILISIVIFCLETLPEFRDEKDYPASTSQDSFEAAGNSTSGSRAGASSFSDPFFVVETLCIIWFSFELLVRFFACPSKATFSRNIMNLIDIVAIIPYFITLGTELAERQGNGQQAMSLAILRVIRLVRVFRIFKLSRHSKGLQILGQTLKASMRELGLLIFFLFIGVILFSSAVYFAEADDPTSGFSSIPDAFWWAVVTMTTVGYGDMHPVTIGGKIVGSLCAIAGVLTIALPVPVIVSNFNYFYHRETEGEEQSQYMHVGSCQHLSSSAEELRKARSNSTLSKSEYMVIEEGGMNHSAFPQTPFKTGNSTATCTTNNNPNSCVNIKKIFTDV
Chain of Kv1.5 potassium channel (P22460 whole entry): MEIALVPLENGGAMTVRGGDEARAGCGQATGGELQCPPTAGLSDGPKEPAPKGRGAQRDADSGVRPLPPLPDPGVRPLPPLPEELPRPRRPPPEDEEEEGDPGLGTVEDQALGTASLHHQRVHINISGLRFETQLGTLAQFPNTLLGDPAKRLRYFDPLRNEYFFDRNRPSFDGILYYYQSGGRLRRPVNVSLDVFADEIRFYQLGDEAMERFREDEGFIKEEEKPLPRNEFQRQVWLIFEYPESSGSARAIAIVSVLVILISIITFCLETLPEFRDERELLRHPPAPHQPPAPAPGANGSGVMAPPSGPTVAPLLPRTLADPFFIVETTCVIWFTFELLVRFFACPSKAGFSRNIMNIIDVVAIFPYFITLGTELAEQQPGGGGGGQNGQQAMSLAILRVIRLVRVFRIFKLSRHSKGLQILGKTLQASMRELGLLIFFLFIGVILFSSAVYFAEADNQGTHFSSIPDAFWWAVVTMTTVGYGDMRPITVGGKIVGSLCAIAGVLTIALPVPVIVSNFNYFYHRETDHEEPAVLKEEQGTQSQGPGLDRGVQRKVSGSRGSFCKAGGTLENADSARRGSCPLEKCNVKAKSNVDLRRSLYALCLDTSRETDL
Chain of Kv1.4 potassium channel (P22459 whole entry): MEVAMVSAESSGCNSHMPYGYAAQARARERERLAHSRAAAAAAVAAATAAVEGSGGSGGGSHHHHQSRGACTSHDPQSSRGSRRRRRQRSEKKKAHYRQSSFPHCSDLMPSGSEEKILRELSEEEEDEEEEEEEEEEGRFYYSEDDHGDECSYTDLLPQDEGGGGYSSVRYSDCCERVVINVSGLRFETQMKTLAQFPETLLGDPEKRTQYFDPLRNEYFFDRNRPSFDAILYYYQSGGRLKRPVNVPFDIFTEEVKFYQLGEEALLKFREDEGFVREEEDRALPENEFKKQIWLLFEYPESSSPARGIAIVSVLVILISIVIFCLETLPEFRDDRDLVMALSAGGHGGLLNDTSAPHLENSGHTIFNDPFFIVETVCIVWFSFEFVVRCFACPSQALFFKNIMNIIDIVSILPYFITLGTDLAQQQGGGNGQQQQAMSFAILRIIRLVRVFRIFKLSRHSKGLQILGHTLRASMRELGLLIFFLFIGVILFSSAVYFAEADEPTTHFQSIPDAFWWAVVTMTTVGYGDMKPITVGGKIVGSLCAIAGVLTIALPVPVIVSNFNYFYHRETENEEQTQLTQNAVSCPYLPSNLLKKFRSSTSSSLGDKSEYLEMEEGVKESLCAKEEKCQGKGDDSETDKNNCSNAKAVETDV
T2 sequence (P16389 whole entry): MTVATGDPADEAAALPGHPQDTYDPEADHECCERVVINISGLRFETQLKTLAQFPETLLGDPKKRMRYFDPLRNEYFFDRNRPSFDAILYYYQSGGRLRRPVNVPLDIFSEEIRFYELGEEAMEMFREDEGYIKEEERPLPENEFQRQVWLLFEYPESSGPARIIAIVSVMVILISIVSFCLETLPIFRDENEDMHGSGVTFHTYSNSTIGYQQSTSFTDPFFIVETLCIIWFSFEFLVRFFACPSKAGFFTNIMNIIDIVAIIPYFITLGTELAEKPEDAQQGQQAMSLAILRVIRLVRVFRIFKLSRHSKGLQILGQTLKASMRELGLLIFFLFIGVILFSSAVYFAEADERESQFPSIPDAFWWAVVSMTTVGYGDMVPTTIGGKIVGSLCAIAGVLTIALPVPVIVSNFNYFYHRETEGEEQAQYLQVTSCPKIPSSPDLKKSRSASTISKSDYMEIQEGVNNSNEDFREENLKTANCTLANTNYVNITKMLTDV

Row | Compound | IC50 [1] | IC50 [2] | IC50 [3] | IC50 [4] | IC50 [5] | IC50 [6]
1 | OCc1nnc2n1C[C@H](c1c(O)ccc(Cl)c1Cl)C2 [Example 2, (S)-3,4-dichloro-2-(3-(hydroxymethyl)-6,7-dihydro-5H-pyrrolo[2,1-c][1,2,4]triazol-6-yl)phenol] | 0.0281 µM | > 100 µM | > 100 µM | > 30 µM | > 100 µM | > 30 µM
2 | Oc1ccc(Cl)c(Cl)c1[C@@H]1Cc2nnc([C@@H]3CCOC3)n2C1 [Example 54, 3,4-Dichloro-2-((S)-3-((S)-tetrahydrofuran-3-yl)-6,7-dihydro-5H-pyrrolo[2,1-c][1,2,4]triazol-6-yl)phenol] | 0.0077 µM | > 100 µM | > 100 µM | > 30 µM | > 100 µM | > 30 µM
